In US9873693B2 (Sunesis Pharmaceuticals, Inc., priority 2006, dated 2018):
Like-named read-outs stand apart in the source and are kept apart here.

Columns and labels:
phosphorylated PDK1 = phosphorylated PDK1 (Homo sapiens (Human), UniProt O15530); test: PDK1 kinase assay (coupled PDK1/AKT/FAM-crosstide, IMAP); format: biochemical; conditions: 0.5 nM phosphorylated PDK1, 24 μM ATP; read-out: Inhibition of phospo-PDK1 in vitro IC50
dephosphorylated PDK1 = dephosphorylated PDK1 (Homo sapiens (Human), UniProt O15530); test: as above; format: biochemical; conditions: 25 nM un-phosphorylated PDK1, 24 μM ATP; read-out: Inhibition of dephospo-PDK1 in vitro IC50
How it was run: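 The FAM-crosstide phosphorylation readout was IMAP polarization (ex 485/em 530 nm, 2 h binding), with 4-parameter fits of ΔmP data. The reaction ran 30 min at 25 °C with 24 μM ATP, and contained 25 nM phosphatase-treated PDK1 (aa 51–360) plus 30 nM unphosphorylated AKT2-PIFtide and 100 nM substrate. Buffer was 10 mM Tris pH 7.2, 10 mM MgCl2, 0.01% Triton X-100 and 1 mM DTT.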

full-length PDK1 = full-length PDK1 (Homo sapiens (Human), UniProt O15530); test: PDK phosphorylation of AKT and PKC-PIFtide in presence of PIP3 vesicles; format: biochemical; conditions: substrates PKC-PIFtide vs AKT2
Method: PDK phosphorylation of two different substrates, AKT and PKC-PIFtide, was measured in presence of pre-formed phophoinositol lipid PIP3 vesicles. 5 nM full-length PDK1 and was incubated with 100 nM substrate (unphosphorylated, full-length AKT2 or PKC-PIFtide, Invitrogen cat#P2925) in presence of test compound or DMSO at room temperature for 3 hours. Final buffer conditions were 10 mM Tris pH 7.5 buffer containing 10 mM MgCl2, 0.002% Triton X-100, 1 mM DTT, 0.2 mg/ml BSA, 10 uM PtdIns(3,4,5)P3 (Matreya, Inc), 100 uM DOPC:DOPS (Avanti Polar Lipids), and 0.5 uCi γ^33P-ATP (3000 Ci/mmol, Perkin-Elmer.)
Kinase reactions were stopped with addition of 50 uM non-labelled ATP and 5 mM EDTA, then acidified with 0.5% final concentration phosphoric acid. Labeled proteins were collected in Whatman P81 filter plates and washed with three 150 ul volumes of 0.5% phosphoric acid.
Lipid vesicles were pre-formed as follows. 15 mg (3 ampules) DOPC:DOPS was resuspended in 898 ul 10 mM HEPES pH 7.4. 1 mg PIP3 was resuspended in 1000 ul 10 mM HEPES pH 7.4. 964 ul of PIP3 was mixed with 800 ul DOPC:DOPS and diluted with 18.2 ml 10 mM HEPES pH 7.4 and mixed by vortexing. The lipid mixture was subjected to 5 cycles of freeze/thaw using liquid nitrogen and a 50° C. water bath. Aliquot of lipids were flash frozen and stored at −20° C.

phospho-akt (Thr308) = phospho-akt (Thr308) MSD ELISA in PC-3 cells; format: cell-based; conditions: Homo sapiens, PC-3, 2 h, PC-3 cells, 2 hours, no serum
How it was run: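 Read-out is MSD electrochemiluminescence after lysate capture overnight at 4 degrees and 1 hr RT detection-antibody step. Before lysis, overnight-plated PC-3 cells received three-fold serial dilutions of inhibitor in serum-free medium, with DMSO-only high controls.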

Phospho-T308 Akt = Phospho-T308 Akt detection using immunoblot (western blot) in PC-3 cells; format: cell-based
How it was run: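 PC-3 prostate cells, cultured overnight in F12K plus 10% FBS, were treated for 2 h at 37 °C in serum-free medium with compound A (1000× DMSO dilutions). Lysate protein was immunoblotted with anti-phospho-Akt Thr308. Bands were quantified by background-subtracted densitometry, giving EC50 by non-linear regression and percent decrease at 2 μM and 5 μM.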

[1] = system: phospho-akt (thr308), phospho-PKC delta (thr505), phospho-PKC (thr538), phospho-PKC zeta (thr410); test: Phospho-PKC detection using immunoblot in PC-3 cells; format: cell-based; conditions: FIG. 2; at 2 hours and 18 hours
Method: The Phospho-PKC Detection was performed using immunoblot analysis as follows. The cell activity of test compounds, were assessed using immunoblot analysis for phospho-akt (thr308), phospho-PKC delta (thr505), phospho-PKC (thr538) and phospho-PKC zeta (thr410).
PC-3 prostate cells were plated in a 100 mm tissue culture dish in F12K media (Invitrogen, Carlsbad, Calif.) plus 10% FBS (Invitrogen) and placed in incubator overnight. The stocks of test compounds were a 50 mM solution in DMSO. For some test compounds a 5 mM solution was made in DMSO then directly diluted (1 μM and 5 μM final concentration) into fresh media with no serum. For other test compounds the 50 mM stock was directly diluted (10 μM and 30 μM final concentrations) into fresh media with no serum. For the control, DMSO was added to media with no serum at a final concentration of 0.1%. Cells were incubated with compound for 2 hrs or 18 hrs at 37° C. Cells were harvested and washed in PBS and subjected to centrifugation at 3,300 rpm for 5 minutes. The cell pellet was lysed in 150 μl Pierce (Rockford, Ill.) M-PER lysis buffer plus protease inhibitors and phosphatase inhibitors (Sigma, St. Louis, Mo.) for 30 minutes on ice followed by centrifugation at 13,000 rpm for 5 minutes. The protein content of the supernatant was assayed using DC Protein Assay (BioRad, Hercules, Calif.). […]

[2] = read-out: Inhibition of P308 Akt in cells using MSD EC50
[3] = read-out: Reduction of Cellular Levels of Akt p308 By MSD ELISA (EC50 μM)

Sequence of dephosphorylated PDK1 (O15530 51-360): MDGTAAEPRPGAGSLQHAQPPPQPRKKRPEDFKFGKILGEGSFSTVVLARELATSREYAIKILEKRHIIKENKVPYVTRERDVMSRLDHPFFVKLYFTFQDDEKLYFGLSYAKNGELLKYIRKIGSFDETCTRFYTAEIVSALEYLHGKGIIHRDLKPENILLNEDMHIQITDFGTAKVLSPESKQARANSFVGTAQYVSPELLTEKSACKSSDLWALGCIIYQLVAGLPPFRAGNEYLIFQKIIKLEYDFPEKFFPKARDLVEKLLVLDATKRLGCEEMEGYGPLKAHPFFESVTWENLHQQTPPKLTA
Sequence of phosphorylated PDK1 (O15530 51-360): as above
Sequence of full-length PDK1 (O15530 whole entry): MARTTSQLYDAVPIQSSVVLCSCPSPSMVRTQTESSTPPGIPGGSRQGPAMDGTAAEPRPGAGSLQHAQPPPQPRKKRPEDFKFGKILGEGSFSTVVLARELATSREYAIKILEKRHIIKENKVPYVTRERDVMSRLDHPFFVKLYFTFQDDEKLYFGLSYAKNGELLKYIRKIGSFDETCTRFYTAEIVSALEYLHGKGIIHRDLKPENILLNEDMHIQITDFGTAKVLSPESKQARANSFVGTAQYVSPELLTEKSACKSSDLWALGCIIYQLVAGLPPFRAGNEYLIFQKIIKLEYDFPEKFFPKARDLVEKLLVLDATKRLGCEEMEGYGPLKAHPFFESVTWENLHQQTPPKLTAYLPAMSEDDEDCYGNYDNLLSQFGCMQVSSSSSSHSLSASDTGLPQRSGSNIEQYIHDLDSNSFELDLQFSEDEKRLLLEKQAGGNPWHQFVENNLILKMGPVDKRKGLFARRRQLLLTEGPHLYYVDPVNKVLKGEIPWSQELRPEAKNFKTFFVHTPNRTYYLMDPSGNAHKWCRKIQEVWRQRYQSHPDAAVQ

Compound | IC50 (phosphorylated PDK1) [µM] | IC50 (dephosphorylated PDK1) [µM] | Ratio of PIP3 IC50 with PKCtide to PIP3 IC50 with AKT (full-length PDK1) | EC50 (phospho-akt (Thr308); [2]) [µM] | EC50 (phospho-akt (Thr308); [3]) [µM] | Reduction of Cellular Levels of Akt p308 By Western (Phospho-T308 Akt; 2 hour incubation, concentration not given in Table 2) | inhibition at 2 µM (Phospho-T308 Akt; Homo sapiens, at 2 μM, read-out: Percent Inhibition of phospho-Akt (308) By Western) [%] | inhibition of PDK1 mediated phosphorylation of Akt relative to PKC isoforms [1]
COc1ccnc(NCCC#CCNC(=O)c2cccn(Cc3ccc(F)c(F)c3)c2=O)n1 [Cpd 109] | < 0.5 | < 0.5 | 51.8 |  |  |  |  | 
O=C(NCc1ccc(-c2c[nH]c3ncccc23)s1)c1cccn(Cc2ccc(F)c(F)c2)c1=O [Cpd 2] | < 0.5 | < 0.5 | 36.7 | 1 to 5 | 1 to 5 |  |  | 
COc1ccnc(NCCC#CCCNC(=O)c2cccn(Cc3cccc(Cl)c3)c2=O)n1 [Cpd 102] | 0.5 to 10 | < 0.5 | 19.1 |  |  |  |  | 
O=C(N[C@@H](COc1ccc2[nH]c(=O)[nH]c2c1)c1ccccc1)c1cccn(Cc2ccc(F)c(F)c2)c1=O [Cpd 144] |  |  |  | < 1 | < 1 | bbb (inhibition of more than 75%) | > 75 | selective inhibition of PDK1 mediated phosphorylation of Akt relative to PDK1 mediated phosphorylation of PKC isoforms
